Patent publication US20200009173A1, “TRIAZOLE-CONTAINING MACROLIDES AND OPHTHALMIC USES THEREFOR” (Tetard, Inc., priority 2017, published 2020)
≈ marks a conversion by molar mass, not a printed value. Read-outs that look alike come from different tables or passages of the source.

Assays:
[1] = MIC in the presence of serum; assay type: cell-based; conditions: 10% serum
[2] = tested on: Streptococci (Groups C, F, G); assay: MIC, Streptococci (Groups C, F, G); assay type: cell-based; conditions: N = 185
Haemophilus influenzae = assay: MIC, Haemophilus influenzae (100 strains); assay type: cell-based
Chlamydia trachomatis = assay: MIC, Chlamydia trachomatis; assay type: cell-based; conditions: N = 10
Mycobacterium avium = assay: MIC, Mycobacterium avium; assay type: cell-based; conditions: N = 30
[3] = tested on: Streptococcus pyogenes (a); assay: MIC, Streptococcus pyogenes (a); assay type: cell-based; conditions: N = 407
Ureaplasma urealyticum = assay: MIC, Ureaplasma urealyticum; assay type: cell-based; conditions: N = 10
Streptococcus mitis = assay: MIC, Streptococcus mitis; assay type: cell-based; conditions: N = 73
Mycoplasma hominis = assay: MIC, Mycoplasma hominis; assay type: cell-based; conditions: N = 13
[4] = tested on: phagocytized L. pneumophila; assay type: cell-based
[5] = tested on: phagocytized L. monocytogenes; assay: Activity against phagocytized L. monocytogenes; assay type: cell-based
H. influenzae = assay: MICs of solithromycin and comparator drugs, H. influenzae (30 species); assay type: cell-based
Excerpt: EXAMPLE. The formulations described herein show overall higher potency against ocular pathogens than commercial standards.
MICs (μg/ml) of Solithromycin and Comparator Drugs against Bacterial Species

P. Acnes = assay: MICs of solithromycin and comparator drugs against P. acnes; assay type: cell-based
Excerpt: EXAMPLE. The formulations described herein show overall higher potency against ocular pathogens than commercial standards. MICs (μg/ml) of Solithromycin and Comparator Drugs against P. Acnes (51 Species)

[6] = Protein binding in plasma; assay type: in vitro ADME
Legionella pneumophila = assay: microbe, parasite or virus in culture; assay type: cell-based
Streptococcus pyogenes = assay: MIC, Streptococcus pyogenes; assay type: cell-based
Corynebacterium spp. = assay: MIC, Corynebacterium spp.; assay type: cell-based; conditions: N = 10
TNFα = TNFα production in LPS-stimulated PMA-differentiated U937 cells (ELISA); assay type: cell-based, human
Protocol: (§1) EXAMPLE. […] Cells. The human monocytic cell line U937 was obtained from the American Type Culture Collection (ATCC, Rockville, Md.). PBMCs from COPD patients were obtained from Brompton hospital and separated by AccuSPIN (Sigma-Aldrich). […] U937 cells were differentiated into adherent macrophage-like morphology by exposure to PMA (50 ng/ml) for 48 h in complete growth medium. Cell viability was assessed microscopically by trypan blue staining. Cell toxicity was determined by MTT assay as needed. This study was approved by the ethics committee of the Royal Brompton Hospitals, and all subjects gave written informed consent. Cytokine ELISA. TNFα and IL-8 concentrations in the supernatant of cell cultures were determined by sandwich ELISA according to the manufacturer's instructions (R&D Systems Europe, Abingdon, UK). Statistical analysis. The results were expressed as the mean±SEM. Comparisons of data in two groups were performed using the Student's t test or the Wilcoxon signed rank test. Multiple comparisons were made by one-way ANOVA with post hoc test (Dunnett's) as appropriate. The difference was considered significant at p<0.05. […] Anti-inflammatory effects of solithromycin in U937 cells.

MMP9 = MMP9 activity in PMA-stimulated U937 cells (gelatin zymography); assay type: cell-based, human; conditions: Homo sapiens, U-937
Protocol: EXAMPLE. […] Cells. The human monocytic cell line U937 was obtained from the American Type Culture Collection (ATCC, Rockville, Md.). PBMCs from COPD patients were obtained from Brompton hospital and separated by AccuSPIN (Sigma-Aldrich). […] U937 cells were differentiated into adherent macrophage-like morphology by exposure to PMA (50 ng/ml) for 48 h in complete growth medium. Cell viability was assessed microscopically by trypan blue staining. Cell toxicity was determined by MTT assay as needed. This study was approved by the ethics committee of the Royal Brompton Hospitals, and all subjects gave written informed consent. Zymography. MMP9 enzyme activity was measured by gelatin zymography. […] After electrophoresis, gels were incubated and rinsed with Novex® zymogram renaturing buffer (Invitrogen) for 30 min at room temperature. The gels were then rinsed in Novex® zymogram developing buffer (Invitrogen) for 30 min at room temperature prior to overnight incubation in the developing buffer at 37° C. After incubation, the gels were stained using a Colloidal Blue Staining Kit (Invitrogen) to visualize the zymogen bands. Statistical analysis. The results were expressed as the mean±SEM. Comparisons of data in two groups were performed using the Student's t test or the Wilcoxon signed rank test. Multiple comparisons were made by one-way ANOVA with post hoc test (Dunnett's) as appropriate. The difference was considered significant at p<0.05.

CXCL8 = CXCL8 (IL-8) production in LPS-stimulated PMA-differentiated U937 cells (ELISA); assay type: cell-based, human
Protocol: as §1

[7] = Cutibacterium acnes, 51 species

For `CC[C@H]1OC(=O)[C@@](C)(F)C(=O)[C@H](C)[C@@H](O[C@@H]2O[C@H](C)C[C@H](N(C)C)[C@H]2O)[C@](C)(OC)C[C@@H](C)C(=O)[C@H](C)[C@H]2N(CCCCn3cc(-c4cccc(N)c4)nn3)C(=O)O[C@]12C` [CEM-101, solithromycin], the “change in MIC in the presence of serum” value [1] was 2 fold, the MIC50 [2] was no more than 0.03 µg/mL and the MIC90 [2] was no more than 0.03 µg/mL. The “MIC Range” value [2] was ≤0.03-0.25^ μg/mL, the MIC90 (Haemophilus influenzae; Haemophilus influenzae, 100 strains, read-out: MIC90) was 2 µg/mL (≈ 2.37 µM) and the MIC50 (Haemophilus influenzae; Haemophilus influenzae, N = 100) was 1 µg/mL (≈ 1.18 µM). For the same molecule, the MIC90 (Haemophilus influenzae; N = 100) was 2 µg/mL (≈ 2.37 µM), the “MIC Range” value (Haemophilus influenzae; N = 100) was 0.12 to 4 µg/mL and the MIC50 (Chlamydia trachomatis; Chlamydia trachomatis) was 0.25 µg/mL (≈ 0.296 µM). The MIC90 (Chlamydia trachomatis; Chlamydia trachomatis) was 0.25 µg/mL (≈ 0.296 µM), the “MIC Range” value (Chlamydia trachomatis) was 0.125 to 0.5 µg/mL and the MIC50 (Mycobacterium avium; Mycobacterium avium) was 1 µg/mL (≈ 1.18 µM). For the same molecule, the MIC90 (Mycobacterium avium; Mycobacterium avium) was 1 µg/mL (≈ 1.18 µM), the “MIC Range” value (Mycobacterium avium) was 1 µg/mL (≈ 1.18 µM) and the “MIC Range” value [3] was ≤0.03-0.5 ^ μg/mL. For the same molecule, the MIC50 ([3]; Streptococcus pyogenes) was no more than 0.03 µg/mL, the MIC90 ([3]; Streptococcus pyogenes) was no more than 0.03 µg/mL and the “MIC Range” value (Ureaplasma urealyticum) was 0.004 to 0.063 µg/mL. The MIC50 (Ureaplasma urealyticum; Ureaplasma urealyticum) was 0.008 µg/mL (≈ 0.00947 µM), the MIC90 (Ureaplasma urealyticum; Ureaplasma urealyticum) was 0.031 µg/mL (≈ 0.0367 µM) and the “MIC Range” value (Streptococcus mitis) was ≤0.03-0.25^ μg/mL. The MIC50 (Streptococcus mitis; Streptococcus mitis) was no more than 0.03 µg/mL, the MIC90 (Streptococcus mitis; Streptococcus mitis) was 0.06 µg/mL (≈ 0.071 µM) and the MIC50 (Mycoplasma hominis; Metamycoplasma hominis) was 0.004 µg/mL (≈ 0.00473 µM). For the same molecule, the MIC90 (Mycoplasma hominis; Metamycoplasma hominis) was 0.008 µg/mL (≈ 0.00947 µM), the “MIC Range” value (Mycoplasma hominis) was 0.002 to 0.008 µg/mL and the “potency relative to azithromycin” value [4] was 100 fold. For the same molecule, the “potency relative to azithromycin” value [5] was 50 fold, the “I (intermediate susceptibility)” value (H. influenzae) was 0% and the “MIC Range” value (H. influenzae) was 1 to 4 µg/mL. For the same molecule, the “NS (not susceptible)” value (H. influenzae) was 0%, the “S (susceptible)” value (H. influenzae) was 100% and the MIC50 (H. influenzae; Haemophilus influenzae) was 2 µg/mL (≈ 2.37 µM). The MIC90 (H. influenzae; Haemophilus influenzae) was 2 µg/mL (≈ 2.37 µM), the “MIC Range” value (P. Acnes) was no more than 0.002 to 0.25 µg/mL and the MIC50 (P. Acnes; [7]) was 0.015 µg/mL (≈ 0.0178 µM). The MIC90 (P. Acnes; [7]) was 0.06 µg/mL (≈ 0.071 µM), the fraction unbound [6] was 0.14 and the MIC50 (Legionella pneumophila; Legionella pneumophila) was no more than 0.015 µg/mL. The MIC90 (Legionella pneumophila; Legionella pneumophila) was no more than 0.015 µg/mL, the MIC90 (Legionella pneumophila; N = 30) was no more than 0.015 µg/mL and the “MIC Range” value (Legionella pneumophila; N = 30) was no more than 0.015 µg/mL. For the same molecule, the “MIC Range” value (Streptococcus pyogenes; N = 407 (CEM-101)) was ≤0.03-0.5 ^ μg/mL, the MIC50 (Streptococcus pyogenes; Streptococcus pyogenes) was no more than 0.03 µg/mL and the MIC90 (Streptococcus pyogenes; Streptococcus pyogenes, 100 strains) was 0.03 µg/mL (≈ 0.0355 µM). For the same molecule, the MIC90 (Streptococcus pyogenes; Streptococcus pyogenes, N = 407 (CEM-101), N = 100 (azithromycin)) was no more than 0.03 µg/mL, the MIC50 (Corynebacterium spp.; Corynebacterium) was 0.015 µg/mL (≈ 0.0178 µM) and the MIC90 (Corynebacterium spp.; Corynebacterium) was 0.5 µg/mL (≈ 0.592 µM). For the same molecule, the “MIC Range” value (Corynebacterium spp.) was ≤0.008-16 ^ μg/mL, the IC50 (TNFα; Homo sapiens, U-937, LPS, PMA-differentiated U937 cells, read-out: IC50 on TNFα release) was 41.6 ± 1.9 µM and the “effect on TNFα production” value (TNFα; at 100 μM) was “significantly inhibited”. For the same molecule, the IC50 (MMP9) was 14.9 ± 3.1 µM, the IC50 (CXCL8; Homo sapiens, U-937, LPS, PMA-differentiated U937 cells, read-out: IC50 on CXCL8 release) was 78.2 ± 9.5 µM and the “effect on CXCL8 production” value (CXCL8; at 100 μM) was “significantly inhibited”.
